Laboratory results taken from PMC5218480 (PLoS ONE, 2017).

Test system: MV-4-11 cells
Assay: Gene expression microarray analysis (Affymetrix PrimeView) and GSEA
Format: cell-based, human
Set-up: RFU PODN (11730768_x_at) / Fold change /veh PODN (11730768_x_at) / RFU LINC00158 (11744669_a_at) / Fold change /veh LINC00158 (11744669_a_at) / RFU DUSP10 (11751237_a_at) / Fold change /veh DUSP10 (11751237_a_at) / RFU ID3 (11757404_x_at) / Fold change /veh ID3 (11757404_x_at) / RFU PLEKHG5 (11737974_s_at) / Fold change /veh PLEKHG5 (11737974_s_at) / RFU LRRC4B (11730491_at) / Fold change /veh LRRC4B (11730491_at) / RFU GIMAP4 (11747438_a_at) / Fold change /veh GIMAP4 (11747438_a_at) / RFU KRT8 (11758183_x_at) / Fold change /veh KRT8 (11758183_x_at) / RFU CNN1 (11734310_a_at) / Fold change /veh CNN1 (11734310_a_at) / RFU VPS37D (11726825_at) / Fold change /veh VPS37D (11726825_at) / RFU C10orf10 (11716522_x_at) / Fold change /veh C10orf10 (11716522_x_at) / RFU KIR2DL2 /// KIR2DL4 /// KIR2DL5A /// KIR2DL5B /// KIR2DS1 /// KIR2DS2 /// KIR2DS3 /// KIR2DS4 /// KIR3DL3 /// KIR3DL3 /// KIR3DS1 (11738374_at) / Fold change /veh KIR2DL2 /// KIR2DL4 /// KIR2DL5A /// KIR2DL5B /// KIR2DS1 /// KIR2DS2 /// KIR2DS3 /// KIR2DS4 /// KIR3DL3 /// KIR3DL3 /// KIR3DS1 (11738374_at) / RFU C1QL1 (11718748_at) / Fold change /veh C1QL1 (11718748_at) / RFU TMPRSS4 (11747572_a_at) / Fold change /veh TMPRSS4 (11747572_a_at) / RFU HAMP (11756126_x_at) / Fold change /veh HAMP (11756126_x_at) / RFU RNFT2 (11725882_a_at) / Fold change /veh RNFT2 (11725882_a_at) / RFU NR4A2 (11747474_a_at) / Fold change /veh NR4A2 (11747474_a_at) / RFU ABCC12 (11746883_a_at) / Fold change /veh ABCC12 (11746883_a_at) / RFU TMEM136 (11760407_x_at) / Fold change /veh TMEM136 (11760407_x_at) / RFU CLDN22 /// WWC2 (11732394_at) / Fold change /veh CLDN22 /// WWC2 (11732394_at) / RFU HLA-DPB1 (11760878_x_at) / Fold change /veh HLA-DPB1 (11760878_x_at) / RFU SPINT1 (11716480_a_at) / Fold change /veh SPINT1 (11716480_a_at) / RFU GAP43 (11754022_s_at) / Fold change /veh GAP43 (11754022_s_at) / RFU A4GNT (11735810_at) / Fold change /veh A4GNT (11735810_at) / RFU PRB3 (11715151_x_at) / Fold change /veh PRB3 (11715151_x_at) / RFU TUBB4B (11761932_at) / Fold change /veh TUBB4B (11761932_at) / RFU CAPN14 (11732068_a_at) / Fold change /veh CAPN14 (11732068_a_at) / RFU TMCC2 (11721928_a_at) / Fold change /veh TMCC2 (11721928_a_at) / RFU IRGQ (11745062_a_at) / Fold change /veh IRGQ (11745062_a_at) / RFU FAM174B (11720279_a_at) / Fold change /veh FAM174B (11720279_a_at) / RFU TMPRSS4 (11748680_a_at) / Fold change /veh TMPRSS4 (11748680_a_at) / RFU FAM212B (11763350_a_at) / Fold change /veh FAM212B (11763350_a_at) / RFU PLEKHG5 (11743358_a_at) / Fold change /veh PLEKHG5 (11743358_a_at) / RFU ZSCAN30 (11745921_a_at) / Fold change /veh ZSCAN30 (11745921_a_at) / RFU CMKLR1 (11741424_a_at) / Fold change /veh CMKLR1 (11741424_a_at) / RFU LOC101060620 /// MAPK8IP1 (11723275_at) / Fold change /veh LOC101060620 /// MAPK8IP1 (11723275_at) / RFU SPTSSB (11747773_x_at) / Fold change /veh SPTSSB (11747773_x_at) / RFU PRSS12 (11739890_at) / Fold change /veh PRSS12 (11739890_at) / RFU BIN1 (11741810_x_at) / Fold change /veh BIN1 (11741810_x_at) / RFU WNT11 (11732464_a_at) / Fold change /veh WNT11 (11732464_a_at) / RFU C10orf10 (11716521_a_at) / Fold change /veh C10orf10 (11716521_a_at) / RFU C5orf56 (11738089_at) / Fold change /veh C5orf56 (11738089_at) / RFU CYB561 (11721691_x_at) / Fold change /veh CYB561 (11721691_x_at) / RFU ANKRD19P (11752326_a_at) / Fold change /veh ANKRD19P (11752326_a_at) / RFU OR2T12 /// OR2T33 /// OR2T8 (11738714_s_at) / Fold change /veh OR2T12 /// OR2T33 /// OR2T8 (11738714_s_at) / RFU VCAN (11748164_a_at) / Fold change /veh VCAN (11748164_a_at) / RFU JSRP1 (11732532_at) / Fold change /veh JSRP1 (11732532_at) / RFU KRTAP10-11 (11738290_x_at) / Fold change /veh KRTAP10-11 (11738290_x_at) / RFU MYO3A (11730013_a_at) / Fold change /veh MYO3A (11730013_a_at) / RFU EBF3 (11725865_a_at) / Fold change /veh EBF3 (11725865_a_at) / RFU CAMK2N1 (11719241_x_at) / Fold change /veh CAMK2N1 (11719241_x_at) / RFU C5orf56 (11738088_a_at) / Fold change /veh C5orf56 (11738088_a_at) / RFU OLFML3 (11715873_a_at) / Fold change /veh OLFML3 (11715873_a_at) / RFU LOC100653217 /// NTM (11731650_a_at) / Fold change /veh LOC100653217 /// NTM (11731650_a_at) / RFU MAPK11 (11762145_a_at) / Fold change /veh MAPK11 (11762145_a_at) / RFU FIZ1 (11724087_x_at) / Fold change /veh FIZ1 (11724087_x_at) / RFU OASL (11726364_x_at) / Fold change /veh OASL (11726364_x_at) / RFU SOX15 (11748057_x_at) / Fold change /veh SOX15 (11748057_x_at) / RFU CD79A (11719716_a_at) / Fold change /veh CD79A (11719716_a_at) / RFU HIST1H1D (11736915_at) / Fold change /veh HIST1H1D (11736915_at) / RFU CASKIN2 (11723855_a_at) / Fold change /veh CASKIN2 (11723855_a_at) / RFU LOC730098 (11760151_x_at) / Fold change /veh LOC730098 (11760151_x_at) / RFU OR4N2 (11742367_at) / Fold change /veh OR4N2 (11742367_at) / RFU PRRT2 (11749266_a_at) / Fold change /veh PRRT2 (11749266_a_at) / RFU SNX32 (11753110_a_at) / Fold change /veh SNX32 (11753110_a_at) / RFU CDHR5 (11726645_a_at) / Fold change /veh CDHR5 (11726645_a_at) / RFU RCAN1 (11760418_a_at) / Fold change /veh RCAN1 (11760418_a_at) / RFU FAM167A (11723789_a_at) / Fold change /veh FAM167A (11723789_a_at) / RFU FAM26E (11764081_at) / Fold change /veh FAM26E (11764081_at) / RFU ISYNA1 (11749810_s_at) / Fold change /veh ISYNA1 (11749810_s_at) / RFU ACY1 (11761880_at) / Fold change /veh ACY1 (11761880_at) / RFU 11764098_at / Fold change /veh 11764098_at / RFU SAMD14 (11745864_x_at) / Fold change /veh SAMD14 (11745864_x_at) / RFU NPB (11741838_a_at) / Fold change /veh NPB (11741838_a_at) / RFU TMPRSS6 (11731388_a_at) / Fold change /veh TMPRSS6 (11731388_a_at) / RFU KRTAP10-2 (11738614_at) / Fold change /veh KRTAP10-2 (11738614_at) / RFU ARHGAP8 /// PRR5-ARHGAP8 (11727945_x_at) / Fold change /veh ARHGAP8 /// PRR5-ARHGAP8 (11727945_x_at) / RFU KRTAP5-7 /// NADSYN1 (11734609_at) / Fold change /veh KRTAP5-7 /// NADSYN1 (11734609_at) / RFU RASL12 (11751679_a_at) / Fold change /veh RASL12 (11751679_a_at) / RFU CDKN2B (11736163_a_at) / Fold change /veh CDKN2B (11736163_a_at) / RFU PRF1 (11729649_at) / Fold change /veh PRF1 (11729649_at) / RFU, ZNF638 /// ZNF638-IT1 / Fold change vs veh, ZNF638 /// ZNF638-IT1 / RFU, PANK3 / Fold change vs veh, PANK3 / RFU, SH3YL1 / Fold change vs veh, SH3YL1 / RFU, ZEB2 / Fold change vs veh, ZEB2 / RFU, NRIP1 / Fold change vs veh, NRIP1 / RFU, PTTG1IP / Fold change vs veh, PTTG1IP / RFU, CAPN2 / Fold change vs veh, CAPN2 / RFU, MED14 / Fold change vs veh, MED14 / RFU, SNORA58 / Fold change vs veh, SNORA58 / RFU, C1orf63 / Fold change vs veh, C1orf63 / RFU, LRRFIP1 / Fold change vs veh, LRRFIP1 / RFU, NDUFAF7 / Fold change vs veh, NDUFAF7 / RFU, SLC12A2 / Fold change vs veh, SLC12A2 / RFU, IBTK / Fold change vs veh, IBTK / RFU, ESF1 / Fold change vs veh, ESF1 / Fold change vs veh, TMEM50B / RFU, TAOK1 / Fold change vs veh, TAOK1 / RFU, ACBD3 / Fold change vs veh, ACBD3 / RFU, TMA16 / Fold change vs veh, TMA16 / RFU, RWDD3 / Fold change vs veh, RWDD3 / RFU, BCAT1 / Fold change vs veh, BCAT1 / RFU, EDEM3 / Fold change vs veh, EDEM3 / RFU, TMEM33 / Fold change vs veh, TMEM33 / RFU, WDR75 / Fold change vs veh, WDR75 / RFU, AHCTF1 / Fold change vs veh, AHCTF1 / RFU, TFRC / Fold change vs veh, TFRC / RFU, ZDHHC17 / Fold change vs veh, ZDHHC17 / RFU, NOM1 / Fold change vs veh, NOM1 / RFU, ARL8B / Fold change vs veh, ARL8B / RFU, ZBTB11 / Fold change vs veh, ZBTB11 / RFU, TAMM41 / Fold change vs veh, TAMM41 / RFU, KIAA1704 /// LOC100996395 / Fold change vs veh, KIAA1704 /// LOC100996395 / RFU, ING1 / Fold change vs veh, ING1 / RFU, TRMT61B / Fold change vs veh, TRMT61B / RFU, FUBP3 / Fold change vs veh, FUBP3 / RFU, TP53 / Fold change vs veh, TP53 / RFU, TNKS2 / Fold change vs veh, TNKS2 / RFU, ZFP14 / Fold change vs veh, ZFP14 / RFU, ACTR2 / Fold change vs veh, ACTR2 / RFU, PPP3R1 / Fold change vs veh, PPP3R1 / RFU, PIK3R1 / Fold change vs veh, PIK3R1 / RFU, HNRNPA1 / Fold change vs veh, HNRNPA1 / RFU, RNF170 / Fold change vs veh, RNF170 / RFU, ZNF28 / Fold change vs veh, ZNF28 / RFU, RNGTT / Fold change vs veh, RNGTT / RFU, OGT / Fold change vs veh, OGT / RFU, BRD1 / Fold change vs veh, BRD1 / RFU, MARS / Fold change vs veh, MARS / RFU, ZNF655 / Fold change vs veh, ZNF655 / RFU, FAHD1 / Fold change vs veh, FAHD1 / RFU, BDP1 / Fold change vs veh, BDP1 / RFU, LRRCC1 / Fold change vs veh, LRRCC1 / RFU, ARID1A / Fold change vs veh, ARID1A / RFU, ZNF146 / Fold change vs veh, ZNF146 / RFU, ZNF330 / Fold change vs veh, ZNF330 / RFU, GPN3 / Fold change vs veh, GPN3 / RFU, C9orf123 / Fold change vs veh, C9orf123 / RFU, N4BP2L2 / Fold change vs veh, N4BP2L2 / RFU, ARFIP1 / Fold change vs veh, ARFIP1 / RFU, FAM179B / Fold change vs veh, FAM179B / RFU, BCL10 / Fold change vs veh, BCL10 / RFU, UHRF1BP1L / Fold change vs veh, UHRF1BP1L / RFU, BET1 / Fold change vs veh, BET1 / RFU, CNOT2 / Fold change vs veh, CNOT2 / RFU, ZNF268 / Fold change vs veh, ZNF268 / Fold change vs veh, ZNF507 / RFU, DGCR2 / Fold change vs veh, DGCR2 / RFU, WDSUB1 / Fold change vs veh, WDSUB1 / Fold change vs veh, HSP90B1 /// MIR3652 / RFU, ADSS / Fold change vs veh, ADSS / RFU, GK / Fold change vs veh, GK / RFU, ZNF148 / Fold change vs veh, ZNF148 / RFU, TAF9 / Fold change vs veh, TAF9 / RFU, SLC1A5 / Fold change vs veh, SLC1A5 / RFU, SLMO2 / Fold change vs veh, SLMO2 / RFU, ABCC4 / Fold change vs veh, ABCC4 / RFU, LOC101060439 /// RAP1B / Fold change vs veh, LOC101060439 /// RAP1B / RFU, RFX7 / Fold change vs veh, RFX7 / RFU, GTPBP10 / Fold change vs veh, GTPBP10 / RFU, CNEP1R1 / Fold change vs veh, CNEP1R1 / RFU, BIVM-ERCC5 /// ERCC5 / Fold change vs veh, BIVM-ERCC5 /// ERCC5 / RFU, ILF3 / Fold change vs veh, ILF3 / RFU 11762660_at / Fold change /veh 11762660_at / RFU VCAN (11757783_s_at) / Fold change /veh VCAN (11757783_s_at) / RFU DDX43 (11728927_at) / Fold change /veh DDX43 (11728927_at) / RFU KRT8 (11758188_x_at) / Fold change /veh KRT8 (11758188_x_at) / RFU NKD1 (11759106_at) / Fold change /veh NKD1 (11759106_at) / RFU SRD5A1 (11742802_a_at) / Fold change /veh SRD5A1 (11742802_a_at) / RFU TPSAB1 /// TPSB2 (11721975_s_at) / Fold change /veh TPSAB1 /// TPSB2 (11721975_s_at) / RFU GSTM3 (11746129_a_at) / Fold change /veh GSTM3 (11746129_a_at) / RFU IL23R (11737362_x_at) / Fold change /veh IL23R (11737362_x_at) / RFU TMEM51 (11727254_a_at) / Fold change /veh TMEM51 (11727254_a_at) / RFU PIWIL2 (11732686_x_at) / Fold change /veh PIWIL2 (11732686_x_at) / RFU ORM1 (11744905_x_at) / Fold change /veh ORM1 (11744905_x_at) / RFU CCDC152 (11743942_at) / Fold change /veh CCDC152 (11743942_at) / RFU ECM1 (11717891_a_at) / Fold change /veh ECM1 (11717891_a_at) / RFU IL23R (11748794_a_at) / Fold change /veh IL23R (11748794_a_at) / RFU TNFAIP8L3 (11732012_x_at) / Fold change /veh TNFAIP8L3 (11732012_x_at) / RFU MBOAT4 (11741988_at) / Fold change /veh MBOAT4 (11741988_at) / RFU 11764193_at / Fold change /veh 11764193_at / RFU TMEM53 (11763286_at) / Fold change /veh TMEM53 (11763286_at) / RFU MAGEB2 (11727129_at) / Fold change /veh MAGEB2 (11727129_at) / RFU TMEM200A (11744735_a_at) / Fold change /veh TMEM200A (11744735_a_at) / RFU CCDC152 (11751479_a_at) / Fold change /veh CCDC152 (11751479_a_at) / RFU FAM211A (11726209_a_at) / Fold change /veh FAM211A (11726209_a_at) / RFU RGS16 (11746705_a_at) / Fold change /veh RGS16 (11746705_a_at) / RFU VCAN (11755009_s_at) / Fold change /veh VCAN (11755009_s_at) / RFU RHOB (11743442_s_at) / Fold change /veh RHOB (11743442_s_at) / RFU RGS16 (11720943_a_at) / Fold change /veh RGS16 (11720943_a_at) / RFU RGS16 (11720944_at) / Fold change /veh RGS16 (11720944_at) / RFU, VPS4B / Fold change vs veh, VPS4B / RFU, CREB1 / Fold change vs veh, CREB1 / RFU, DNAJC13 / Fold change vs veh, DNAJC13 / RFU, GNAQ / Fold change vs veh, GNAQ / RFU, CDK5R1 / Fold change vs veh, CDK5R1 / RFU, ZRANB3 / Fold change vs veh, ZRANB3 / RFU, CUL4A / Fold change vs veh, CUL4A / RFU, CCNY / Fold change vs veh, CCNY / RFU, UFL1 / Fold change vs veh, UFL1 / RFU, COG3 / Fold change vs veh, COG3 / RFU, DIAPH2 / Fold change vs veh, DIAPH2 / RFU, SKA2 / Fold change vs veh, SKA2 / RFU, AFF3 / Fold change vs veh, AFF3 / RFU, LMF1 / Fold change vs veh, LMF1 / RFU, IPO11 / Fold change vs veh, IPO11 / RFU, DFFB / Fold change vs veh, DFFB / RFU, FOXP1 / Fold change vs veh, FOXP1 / RFU, CARD8 / Fold change vs veh, CARD8 / RFU, STRN3 / Fold change vs veh, STRN3 / RFU, ADK / Fold change vs veh, ADK / RFU, RASSF2 / Fold change vs veh, RASSF2 / RFU, WIPF1 / Fold change vs veh, WIPF1 / RFU, LARP1B / Fold change vs veh, LARP1B / RFU, RASA1 / Fold change vs veh, RASA1 / RFU, RB1 / Fold change vs veh, RB1 / RFU, PPFIA1 / Fold change vs veh, PPFIA1 / RFU, MAT2A / Fold change vs veh, MAT2A / RFU, CCT5 / Fold change vs veh, CCT5 / RFU, WDR92 / Fold change vs veh, WDR92 / RFU, CUX1 / Fold change vs veh, CUX1 / RFU, TTC7A / Fold change vs veh, TTC7A / RFU, TMEM135 / Fold change vs veh, TMEM135 / RFU, DEPTOR / Fold change vs veh, DEPTOR / RFU, CPM / Fold change vs veh, CPM / RFU, DNAJB6 / Fold change vs veh, DNAJB6 / RFU, CACNA2D3 / Fold change vs veh, CACNA2D3 / RFU, DTX4 / Fold change vs veh, DTX4 / RFU, TFCP2 / Fold change vs veh, TFCP2 / RFU, GMCL1 /// GMCL1P1 / Fold change vs veh, GMCL1 /// GMCL1P1 / RFU, AEBP2 / Fold change vs veh, AEBP2 / RFU, SNHG1 /// SNORD22 /// SNORD25 /// SNORD26 /// SNORD27 /// SNORD28 /// SNORD29 /// SNORD31 / Fold change vs veh, SNHG1 /// SNORD22 /// SNORD25 /// SNORD26 /// SNORD27 /// SNORD28 /// SNORD29 /// SNORD31 / Fold change (Aza/veh), C12orf56 (ProbeSet 11735607_a_at) / Fold change (ACY-1035/veh), C12orf56 (ProbeSet 11735607_a_at) / Fold change (Aza/veh), FGFR1OP (ProbeSet 11751329_s_at) / Fold change (ACY-1035/veh), FGFR1OP (ProbeSet 11751329_s_at) / Fold change (Aza/veh), VPS36 (ProbeSet 11739960_a_at) / Fold change (ACY-1035/veh), VPS36 (ProbeSet 11739960_a_at) / RFU SYPL1 (11715823_x_at) / Fold change /veh SYPL1 (11715823_x_at) / RFU IGFBP7 (11715501_s_at) / Fold change /veh IGFBP7 (11715501_s_at) / RFU REEP3 (11722064_at) / Fold change /veh REEP3 (11722064_at) / RFU IGLL1 (11728026_x_at) / Fold change /veh IGLL1 (11728026_x_at): dose or concentration left out as unconfirmed
Conditions: ProbeSet 11753616_s_at; LIST B

Nc1ncn([C@@H]2O[C@H](CO)[C@@H](O)[C@H]2O)c(=O)n1 [azacitidine]
RFU, ARL8B: 221.87 RFU
